Key:
Assay type in all cases: in vivo, Wistar rats
[1] = system: stomach damage induced by aspirin; test: Effect on preventing stomach damage in rats with stomach damage induced by aspirin (microscopic observation of opened stomach); conditions: oral, once every day for 5 weeks; aspirin 50 mg/kg BW; salt 0.167 g/kg BW; glibenclamide 10 mg/kg BW abdominally 1 hour before
Method: (§1) In order to measure an effect on preventing stomach damage, five-week Wistar rats were purchased from Central Lab. Animal Inc., Seoul, Korea. A breeding room was set to be 20° C. of the temperature, 50 to 60% of relative humidity, and 12 hours of lighting cycle, and water and food were set to be freely taken. The test animals were accommodated for 2 weeks using a general feed prepared on the basis of AlN-93G, and then, the weights of the animals were measured to divide them into each of test groups (n=8). Since then, the test groups were a normal group (Con) injected with distilled water only, a control group (NaCl) injected with pure sodium chloride (NaCl, 0.167 g/kg BW) that was a main ingredient of salt only, and a heat-treated salt-treating group injected with heat-treated purple salt (0.167 g/kg BW), in which each of sample solutions was orally injected along with aspirin (50 mg/kg BW) once every day for 5 weeks. In addition, glibenclamide (10 mg/kg BW) solution inhibiting KATP channel dissolved in 0.01 N NaOH including 4% glucose was abdominally injected 1 hour before orally injecting aspirin (50 mg/kg BW) and heat-treated salt (0.167 g/kg BW), and performed once every day for 5 weeks. The respective treating groups were fasted for 24 hours before sacrificing; sacrificed; and then, the stomach was removed.

[2] = system: gastric ulcer induced by aspirin; test: Gastric ulcer index in rats with stomach damage induced by aspirin (method of Dekanski et al.); conditions: oral, once every day for 5 weeks; aspirin 50 mg/kg BW; salt 0.167 g/kg BW; glibenclamide 10 mg/kg BW; n=8
Method: as §1, with “The respective treating groups were fasted for 24 hours before sacrificing; sacrificed; and then, the stomach was removed.” left out
An effect of the heat-treated purple salt obtained in Example 2 on suppressing gastric ulcer was measured.

[3] = system: damage of gastric mucous membrane induced by aspirin; test: Damage of gastric mucous membrane measured as stomach thickness in rats with stomach damage induced by aspirin; conditions: oral, once every day for 5 weeks; aspirin 50 mg/kg BW; salt 0.167 g/kg BW; glibenclamide 10 mg/kg BW; ocular micrometer
Method: as §1, with “[…] A degree of the damage of gastric mucous membrane of the heat-treated purple salt obtained” for “In addition, glibenclamide (10 mg/kg BW) solution inhibiting KATP channel dissolved”, “Example 2” for “0.01 N NaOH including 4% glucose”, “measured by measuring a stomach thickness. […] Since” for “abdominally injected 1 hour before orally injecting aspirin (50 mg/kg BW) and heat-treated salt (0.167 g/kg BW), and performed once every day for 5 weeks. The respective treating groups were fasted for 24 hours before sacrificing; sacrificed; and”, “thicknesses were measured using an ocular micrometer.” for “was removed.”

Question: Which “stomach damage (bleeding, inflammation, mucosa) observed with optical microscope (FIG. 2)” value [1] does the source give for CC(=O)Oc1ccccc1C(=O)O [aspirin] here?
Answer: severe damage along with gastric hemorrhage

Question: What about the “gastric ulcer index (FIG. 3)” value [2] of the same compound?
Answer: 37.3±10.4

Question: And the “stomach thickness (FIG. 4)” value [3]?
Answer: very thin as compared with the normal group

From patent US9895409B2, “Remedy for gastritis and gastric ulcer” (priority 2011, dated 2018)
